For data set [1], the system named is ABCG2 over-expressing Ig-MXP3 cells. The data set can be described thus: Chemoreversal assay: potentiation of mitoxantrone (MTX) killing. It counts as cell-based. The conditions noted are these: Ig-MXP3 cells.
Another data set has as its system Ig-MXP3 cells. In words: Direct cytotoxicity (Toxic Dose 50) without chemotherapeutic. It counts as cell-based.
Data set [2] relates to ABCB1 over-expressing Jurkat-DNR cells. In words: Chemoreversal assay: potentiation of daunorubicin (DNR) killing. It counts as cell-based.
The target in the next data set is ABCB1 (Homo sapiens, UniProt P08183). In words: JC-1 efflux inhibition dose response, flow cytometry, Jurkat-DNR cells. The conditions noted are these: for IC50: Jurkat-DNR cells over-expressing ABCB1, averages of two to four replicates. How it is done: (§1) The HyperCyt® high throughput flow cytometry platform (IntelliCyt™, Albuquerque, N. Mex.) was used to sequentially sample cells from 384-well microplates (2 μL/sample) for flow cytometer presentation at a rate of 40 samples per minute.^62-63 Flow cytometric analysis was performed on a CyAn™ flow cytometer (Beckman-Coulter, Fullerton, Calif.). The resulting time-gated data files were analyzed with HyperView® software to determine compound activity in each well. Inhibition response curves were fitted by Prism® software (GraphPad Software, Inc., San Diego, Calif.) using nonlinear least-squares regression in a sigmoidal dose response model with variable slope, also known as the four-parameter logistic equation. This type of time-gated flow cytometric data analysis was described in detail for a previous ABC transporter screen from our group.^56
Chain of ABCB1 (P08183 whole entry): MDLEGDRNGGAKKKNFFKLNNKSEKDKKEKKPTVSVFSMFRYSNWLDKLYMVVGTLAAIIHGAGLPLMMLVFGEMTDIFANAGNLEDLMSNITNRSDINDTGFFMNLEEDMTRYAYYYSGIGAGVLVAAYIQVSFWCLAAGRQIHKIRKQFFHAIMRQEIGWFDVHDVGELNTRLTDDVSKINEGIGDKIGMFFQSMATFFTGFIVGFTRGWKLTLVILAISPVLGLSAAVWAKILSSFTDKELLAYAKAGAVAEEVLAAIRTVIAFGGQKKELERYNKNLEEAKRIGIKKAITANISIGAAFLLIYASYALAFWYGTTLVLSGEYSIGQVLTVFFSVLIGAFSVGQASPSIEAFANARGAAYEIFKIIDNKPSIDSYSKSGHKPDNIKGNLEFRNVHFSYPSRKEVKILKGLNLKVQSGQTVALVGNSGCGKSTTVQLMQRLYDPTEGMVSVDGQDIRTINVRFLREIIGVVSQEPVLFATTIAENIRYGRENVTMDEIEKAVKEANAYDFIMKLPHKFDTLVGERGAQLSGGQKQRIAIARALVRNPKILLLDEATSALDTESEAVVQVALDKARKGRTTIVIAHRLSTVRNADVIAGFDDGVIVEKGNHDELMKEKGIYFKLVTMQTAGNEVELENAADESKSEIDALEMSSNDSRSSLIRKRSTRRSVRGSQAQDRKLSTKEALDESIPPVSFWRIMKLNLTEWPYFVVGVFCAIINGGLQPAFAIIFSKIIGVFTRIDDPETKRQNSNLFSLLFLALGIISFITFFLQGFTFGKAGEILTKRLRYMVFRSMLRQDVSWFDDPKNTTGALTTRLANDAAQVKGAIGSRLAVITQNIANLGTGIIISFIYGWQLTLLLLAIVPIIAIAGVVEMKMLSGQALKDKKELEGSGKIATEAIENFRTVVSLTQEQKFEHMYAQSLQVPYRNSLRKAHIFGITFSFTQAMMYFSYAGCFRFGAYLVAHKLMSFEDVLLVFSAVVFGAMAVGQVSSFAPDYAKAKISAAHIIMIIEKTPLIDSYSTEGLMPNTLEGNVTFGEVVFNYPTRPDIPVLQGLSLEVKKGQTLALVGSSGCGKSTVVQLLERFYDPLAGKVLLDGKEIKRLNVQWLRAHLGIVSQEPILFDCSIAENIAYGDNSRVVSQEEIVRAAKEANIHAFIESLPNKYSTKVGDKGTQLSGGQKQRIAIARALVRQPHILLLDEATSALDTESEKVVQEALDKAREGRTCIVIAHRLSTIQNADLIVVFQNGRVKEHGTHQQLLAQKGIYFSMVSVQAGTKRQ
The assay provider's ABCB1 over-expressing Jurkat-DNR cell line is used for confirmatory follow up instead of the CCRF-Adr cells. Each cell line (Jurkat-DNR and Ig-MXP3) is run separately against all compounds (no differential cell staining) in dose response. The assay is conducted in 384-well format in a total volume of 15.1 μL. Cells and reagents are added sequentially as follows: 1) PBS buffer (5 μL/well); 2) test compound (100 nL/well); 3) drug-resistant cells (10 μL/well) pre-stained with the JC-1 substrate at 1 μM. Final in-well concentrations of test compound range from 50 μM to 69 nM over an 18 point dose response and the cell concentration is 1×10^6 cells/mL. Nicardipine (50 μM) is added to each plate as a pan-inhibition positive control. The plate is rotated end-over-end at 4 RPM and 25° C. for 30 minutes and then cell samples are analyzed and flow cytometric data of light scatter and fluorescence emission at 530+/−20 nm (488 nm excitation, FL1) are collected.
Each cell line (Jurkat-DNR and Ig-MXP3) was run separately against all compounds (no differential cell staining) in dose-response. The protocol differed from the single point screen as describe here. Cells and reagents were added sequentially as follows: 1) PBS buffer (5 μL per well); 2) test compound (100 nL per well); 3) drug-resistant cells (10 μL, per well) pre-exposed to the JC-1 substrate at 1 μM just prior to the well addition. Final in-well concentrations of test compound ranged from 50 μM to 69 nM over an 18 point dose-response and the cell concentration was 1×10^6 cells mL^−1.

For a further data set, the system named is Jurkat-DNR cells. The data set can be described thus: Direct cytotoxicity (Toxic Dose 50) without chemotherapeutic. The protocol:
Cells (ABCB1, Jurkat-DNR or ABCG2 Ig-MXP3) are incubated with the test compound (3 order of magnitude concentration range) over a 3-day and 7-day period in the presence of the inhibitor and chemotherapeutic (ABCB1, DNR or ABCG2 MTX), such that a cell concentration of at least 1×10^5 cells/mL is maintained. Cell viability is determined by trypan blue staining and enumeration under light microscopy. […] A chemoreversal index (Chemoreversal 50, CR50) is determined from the viability assessment. Using a similar approach, a direct cytotoxicity index (Toxic Dose 50, TD50) is determined by assessment of cell death of cells grown in media alone.
Cells (ABCB1, Jurkat-DNR or ABCG2 Ig-MXP3) were incubated with the test compound in a 3 order of magnitude concentration range over three and seven day periods in the presence of the inhibitor and chemotherapeutic (ABCB1, 100 nM DNR or ABCG2 30 nM MTX), such that a cell concentration of at least 1×10^5 cells mL^−1 was maintained. Cell viability was determined by trypan blue staining and enumeration under light microscopy. […] A chemoreversal index (Chemoreversal 50, CR50) was determined from the viability assessment. Using a similar approach, a direct cytotoxicity index (Toxic Dose 50, TD50) was determined by assessment of cell death of cells grown in media alone.

For another data set, the target named is T1, ABCG2 (Homo sapiens, UniProt Q9UNQ0).
T1 sequence (Q9UNQ0 1-655): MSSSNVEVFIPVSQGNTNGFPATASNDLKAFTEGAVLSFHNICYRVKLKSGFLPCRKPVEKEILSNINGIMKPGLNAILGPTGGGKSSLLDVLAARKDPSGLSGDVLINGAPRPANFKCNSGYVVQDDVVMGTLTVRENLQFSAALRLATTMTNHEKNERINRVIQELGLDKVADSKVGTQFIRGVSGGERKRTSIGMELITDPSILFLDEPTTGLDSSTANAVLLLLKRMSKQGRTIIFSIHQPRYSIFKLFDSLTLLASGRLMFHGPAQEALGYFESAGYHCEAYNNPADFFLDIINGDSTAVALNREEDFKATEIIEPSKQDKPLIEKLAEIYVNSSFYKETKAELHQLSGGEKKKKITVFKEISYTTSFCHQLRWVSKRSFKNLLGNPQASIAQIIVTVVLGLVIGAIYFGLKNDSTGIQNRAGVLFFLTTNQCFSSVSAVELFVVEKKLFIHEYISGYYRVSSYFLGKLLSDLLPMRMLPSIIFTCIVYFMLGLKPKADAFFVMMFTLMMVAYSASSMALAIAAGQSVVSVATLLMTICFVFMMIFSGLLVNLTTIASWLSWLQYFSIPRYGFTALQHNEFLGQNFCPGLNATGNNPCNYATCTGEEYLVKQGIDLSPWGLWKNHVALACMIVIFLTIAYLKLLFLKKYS
The data set can be described thus: JC-1 efflux inhibition dose response, flow cytometry, Ig-MXP3 cells. How it is done: as §1
(§2) The assay provider's ABCB1 over-expressing Jurkat-DNR cell line is used for confirmatory follow up instead of the CCRF-Adr cells. Each cell line (Jurkat-DNR and Ig-MXP3) is run separately against all compounds (no differential cell staining) in dose response. The assay is conducted in 384-well format in a total volume of 15.1 μL. Cells and reagents are added sequentially as follows: 1) PBS buffer (5 μL/well); 2) test compound (100 nL/well); 3) drug-resistant cells (10 μL/well) pre-stained with the JC-1 substrate at 1 μM. […] Nicardipine (50 μM) is added to each plate as a pan-inhibition positive control.
(§3) Each cell line (Jurkat-DNR and Ig-MXP3) was run separately against all compounds (no differential cell staining) in dose-response. The protocol differed from the single point screen as describe here. Cells and reagents were added sequentially as follows: 1) PBS buffer (5 μL per well); 2) test compound (100 nL per well); 3) drug-resistant cells (10 μL, per well) pre-exposed to the JC-1 substrate at 1 μM just prior to the well addition.
On the technique in general: Flow cytometry measures light scatter and fluorescence of single cells or particles in a stream.

A further data set addresses T2, ABCB1 / ABCG2 (Homo sapiens, UniProt Q9UNQ0).
T2 sequence (Q9UNQ0 1-655): T1 sequence (Q9UNQ0 1-655)
The description is as above. To be noted: human, probe JC-1 (1 µM), ~Fold G2 Selective (B1/G2), quotient of average ABCB1 IC50 and average ABCG2 IC50, efflux assay. The protocol: as §1, §2, §3

[3] abbreviates: read-out: IC50 ABCB1 (efflux inhibition of JC-1 substrate).
Where [4] appears, read: read-out: IC50 ABCG2 (efflux inhibition of JC-1 substrate), Ig-MXP3 cells over-expressing ABCG2, averages of two to four replicates.
Where [5] appears, read: Ig-MXP3 cells, inhibitor without chemotherapeutic.
Setting [6] is: Jurkat-DNR cells, inhibitor without chemotherapeutic.
Where [7] appears, read: constant 30 nM MTX, varied inhibitor dose, read-out: CR50 ABCG2.
The mark [8] stands for this setting: constant 100 nM DNR, varied inhibitor dose, read-out: CR50 ABCB1.
The mark [9] stands for this setting: IC50 ABCB1 (efflux inhibition of JC-1 substrate).

The IC50 is the concentration that inhibits the measured activity by half.

Each structure is given as a SMILES string. Read-outs that look alike come from different tables or passages of the source.

In the case of `COc1cc2c(cc1OC)CN(CCc1ccc(NC(=O)c3cccc(/C=c4\[nH]c(=O)/c(=C/c5ccccc5)n(C)c4=O)c3)cc1)CC2` [Compound 2, reference compound], the EC50 in data set [1] (values in nM, listed as XR9051, read-out: chemoreversal (CR50) ABCG2) is 700 nM; in data set [1] (values in nM, read-out: chemoreversal (CR50) ABCG2), 650 nM; in data set [2] (values in nM, read-out: chemoreversal (CR50) ABCB1) it was 10 nM. For the same molecule, the “TD50 ABCG2” value in the data set on Ig-MXP3 cells was 21.40 µM. The IC50 at ABCB1 (setting [3]) is 0.61 ± 0.43 µM; at ABCB1 (read-out: IC50 ABCB1 (efflux inhibition of JC-1 substrate), listed as XR9051), 0.6 µM; at ABCG2 (setting [4]), 2.27 ± 2.05 µM; at ABCG2 (read-out: IC50 ABCG2 (efflux inhibition of JC-1 substrate), Ig-MXP3 cells over-expressing ABCG2, averages of two to four replicates, listed as XR9051), 2.3 µM. Besides, the “TD50 ABCB1” value in the data set on Jurkat-DNR cells worked out at 1.97 µM.
On to `COc1ccc2c3c([nH]c2c1)[C@H](CC(C)C)N1C(=O)[C@H](CCC(=O)OC(C)(C)C)NC(=O)[C@@H]1C3` [Compound 4, reference compound], for which the “TD50 ABCG2” value in the data set on Ig-MXP3 cells (setting [5]) was 20.00 µM. Besides, the “TD50 ABCB1” value with Jurkat-DNR cells (setting [6]) came out at 2.84 µM.
Take `CN(C)C(=O)CCSC(SCCC(=O)O)c1cccc(/C=C/c2ccc3ccc(Cl)cc3n2)c1` (centres unmarked) [Compound 5, reference compound]: the EC50 in data set [1] (setting [7]) was 57400 nM; in data set [2] (setting [8]), 20400 nM. For the same molecule, the “TD50 ABCG2” value in the data set with Ig-MXP3 cells (setting [5]) amounted to 57.40 µM. In addition, the IC50 at ABCB1 (setting [9]), at ABCB1 (setting [3]) and against ABCG2 was greater than 50 µM throughout. Besides, the “efflux inhibition activity ABCB1” value on ABCB1 (JC-1 efflux, Jurkat-DNR) was “didn't observe any inhibition”. Also, the “TD50 ABCB1” value in the data set on Jurkat-DNR cells (setting [6]) amounted to 20.40 µM. Moreover, the “efflux inhibition activity ABCG2” value on ABCG2 (JC-1 efflux, Ig-MXP3) is recorded as “didn't observe any inhibition”.
As for `O=C(c1ccco1)N1CCN(c2cc(-c3ccccc3)nc3cc(-c4cccc(Cl)c4)nn23)CC1` [Compound 8], the EC50 was 140 nM in data set [1] (setting [7]); 700 nM in data set [2] (constant 100 nM DNR, varied inhibitor dose, listed as SID 85240370, read-out: CR50 ABCB1); 250 nM in data set [2] (setting [8]). Besides, the figures for the IC50 on ABCB1 (setting [3]) and at ABCG2 (setting [4]) were 6.18 µM and 0.96 µM, respectively. Also, the “~Fold G2 Selective (B1/G2)” value on ABCG2 (quotient of average ABCB1 IC50 and average ABCG2 IC50, efflux assay) worked out at 6.4 fold.
For `Cc1nc2cc(-c3cccc(Cl)c3)nn2c(N2CCN(C(=O)c3ccco3)CC2)c1C` [Compound 9], in data set [1] (setting [7]), the EC50 stood at 170 nM. For the same molecule, the “TD50 ABCG2” value in the data set on Ig-MXP3 cells (setting [5]) was 47.40 µM. In addition, the IC50 against ABCB1 (setting [9]) was 8.4 ± 0.7 µM; against ABCG2 it was 2.65 ± 1.07 µM. Further, the “TD50 ABCB1” value with Jurkat-DNR cells (setting [6]) is greater than 100 µM. For the same molecule, the selectivity ratio at 30 min at ABCB1 / ABCG2 is 3.2.
Turning to `c1ccc(-c2cc3nc(-c4ccco4)cc(N4CCNCC4)n3n2)cc1` [Compound 77], the IC50 on ABCB1 (setting [9]) was determined as 23.6 ± 12.1 µM; against ABCG2, 5.71 ± 1.8 µM. On ABCB1 / ABCG2, the selectivity ratio at 30 min is 4.1.
The corresponding values for `CNCCCN(C)c1cc(-c2ccco2)nc2cc(-c3ccccc3)nn12` [Compound 79] are 11.9 ± 8.94 µM, 25.5 ± 13.4 µM and 0.5.
For the molecule `CN(CCN(C)c1cc(-c2ccco2)nc2cc(-c3ccccc3)nn12)C(=O)c1ccoc1` [Compound 80], the IC50 against ABCB1 (setting [9]) turned out to be 17.5 ± 5.88 µM; on ABCG2, 13 ± 7.88 µM. Further, on ABCB1 / ABCG2, the selectivity ratio at 30 min came to 1.3.
Consider `CN(CCCN(C)c1cc(-c2ccco2)nc2cc(-c3ccccc3)nn12)C(=O)c1ccoc1` [Compound 81], for which the IC50 came out at 13.1 ± 6.27 µM on ABCB1 (setting [9]) and 5.43 ± 4.11 µM at ABCG2. The selectivity ratio at 30 min at ABCB1 / ABCG2 worked out at 2.4.
As for `CN(C)c1cc(-c2ccco2)nc2cc(-c3ccccc3)nn12` [Compound 82], the IC50 against ABCB1 (setting [9]) was 27.7 ± 14.5 µM; at ABCG2 it was 7.68 ± 1.69 µM. Further, the selectivity ratio at 30 min at ABCB1 / ABCG2 is 3.6.
The matching figures for `O=C1CN(c2cc(-c3ccco3)nc3cc(-c4ccccc4)nn23)CCN1c1ccccc1` [Compound 83]: 4.06 ± 1.78 µM, 1.64 ± 0.52 µM and 2.5.
With `O=C(c1ccoc1)N1CCCN(c2cc(-c3ccco3)nc3cc(-c4ccccc4)nn23)C1` [Compound 85], the IC50 against ABCB1 (setting [9]) was found to be 19.1 ± 9.52 µM; against ABCG2 it was 2.25 ± 1.9 µM. Further, the selectivity ratio at 30 min at ABCB1 / ABCG2 was found to be 8.5.
In the case of `CC1CN(C(=O)c2ccoc2)CCN1c1cc(-c2ccco2)nc2cc(-c3ccccc3)nn12` (centres unmarked) [Compound 86], the figures for the IC50 at ABCB1 (setting [9]) and against ABCG2 were 3.27 ± 1.43 µM and 4.65 ± 3.96 µM, respectively. In addition, the selectivity ratio at 30 min on ABCB1 / ABCG2 was 0.7.
For `Cc1nc2cc(-c3ccccc3)nn2c(N2CCN(C(=O)c3ccoc3)CC2)c1C` [Compound 89], the IC50 against ABCB1 (setting [9]) was found to be 1.63 ± 0.59 µM; against ABCG2, 2.18 ± 1.93 µM. The selectivity ratio at 30 min on ABCB1 / ABCG2 was found to be 0.7.
